The text below walks through data of patent US20250127743A1, “USE OF BRANCHED CHAIN FATTY ACIDS (BCFAS) FOR THE TREATMENT OF INTESTINAL INFLAMMATION” (priority 2021, published 2025).

Where two headings read alike, the source gives them in different places.

The test system of data set [1] is proteins conjugated to SUMO2/3 in CACO2 cells. Kind of data set: Immunoblot quantification of SUMO2/3-conjugated proteins (above 50 kDa) in CACO2 cells. The data set is classed as cell-based. The settings on record: for effect of ROS scavenger preincubation on BCFAs-induced hyperSUMOylation: 30 min pre-incubation with 5 mM NAC or 10 μM DPI, then 1h 5 mM isobutyric or isovaleric acid. The method, then: (§1) CACO2 and HeLa cells were cultivated in Minimum Essential Medium (MEM) (Eurobio) supplemented with 2 mM L-Glutamine (Invitrogen), 10% Fetal Bovine Serum (FBS, Eurobio), non-essential aminoacids (Sigma), 1 mM sodium pyruvate (Gibco) and a mixture of penicillin (10000 U/mL) and streptomycin (10 mg/mL). […] CACO2 and T84 cells were seeded in wells at a density of 1.1×10^5 cells/cm^2 and 1.7×10^5 cells/cm^2, respectively, the day before incubation with BCFAs or SCFAs.
(§2) Before treatments, cell culture medium was replaced by HBSS (Hanks' Balanced Salt Solution; Sigma). Cells were then treated as indicated in the text and directly lysed with Laemmli buffer. For BCFAs and SCFAs treatments, 100 mM stock solutions in water were first prepared from the corresponding acidic form (e.g. isobutyric acid) or from the sodium salt of the corresponding basic form (e.g. sodium isobutyrate) and then further diluted in cell culture media (HBSS). When needed, the pH of cell culture medium was set using either 0.1 M NaOH or 0.1 M HCl solution. […] For TNFα treatments, CACO2 cells were first incubated with BCFAs or SCFAs for 1 hour and then incubated with 100 ng/mL recombinant human TNFα (PeproTech). For immunoblotting and qRT-PCR analyses, cells were lysed after 30 min or 1h of incubation with TNFα, respectively. For Transepithelial electrical resistance (TEER) measurements, cells were incubated for 24 h with TNFα. Viability of cells incubated with HBSS at various pH or with BCFAs was assessed using the CellTiter-Glo® luminescent cell viability assay (Promega), according to the manufacturer's protocol.
(§3) Cell lysates and protein extracts from intestinal tissues in Laemmli buffer were boiled for 5 min, sonicated and protein content was resolved using SDS-polyacrylamide gel electrophoresis. Proteins were then transferred on PVDF membranes (GE Healthcare) and detected after incubation with specific antibodies using ECL Clarity Western blotting Substrate (BioRad). […] Quantifications of proteins were performed on a ChemiDoc Imaging System (Bio-rad). SUMO2/3-conjugated proteins levels (above 50 kDa), SUMO1-conjugated protein levels (above 50 kDa), and other specific protein levels were normalized either by the level of total proteins above 50 kDa (determined using the TGX-stain free imaging technology; Bio-rad) or by the level of actin in each lysate.
For orientation: In western blotting, separated proteins are transferred to a membrane and probed.

Data set [2] in a line: pH and acid/base forms of BCFA in HBSS medium. The data set is classed as physicochemical. The settings on record: 5 mM added to HBSS medium. The method, then:
as §2
BCFAs are weak organic acids, which exist in solution either as acidic (R—COOH) or basic (R—COO^−) forms.

A further data set relates to T84 cells. In words: Intracellular pH (BCECF-AM) in T84 cells. Conditions: 5 mM.
Another data set deals with IκBα. In words: Immunoblot of IκBα levels in TNFα-stimulated CACO2 cells. The data set is classed as cell-based. Conditions: 1 hour pre-incubation with 5 mM, then 30 min 100 ng/mL TNFα. The method, then: as §2, §3
In data set [3] the test system is CACO2 cells. Kind of data set: Intracellular pH (BCECF-AM) in CACO2 cells. The data set is classed as cell-based. The settings on record: 5 mM.
In a further data set the test system is IL8. Kind of data set: qRT-PCR of IL8 mRNA in TNFα-stimulated CACO2 cells. The data set is classed as cell-based. Conditions: 1 hour pre-treatment, then 1 hour 100 ng/mL TNFα. The method, then:
as §2, with “For Transepithelial electrical resistance (TEER) measurements, cells were incubated for 24 h with TNFα.” left out
(§4) Total RNAs were extracted from CACO2 cells using the RNeasy Plus Mini kit (Qiagen) following manufacturer's instructions. […] Specific cDNAs were then quantified by qPCR using Itaq Universal SYBR Green Supermix (BioRad) on a Mastercycler ep Realplex system (Eppendorf, Hamburg, Germany). […]
On the technique in general: Quantitative PCR measures a nucleic acid by following its amplification.

Data set [4] relates to CACO2 cells. In words: Luminol-based ROS detection assay in CACO2 cells. Type of data set: cell-based. Conditions: for ROS production: 1h of incubation; for level of ROS: 5h of incubation, compared with 1h. The method, then:
Luminol was dissolved in NaOH 0.1 M to obtain a 50 mM stock solution. A stock solution of 1000 U/mL HRP (HorseRadish Peroxidase) was prepared in parallel in PBS (Phosphate-Buffered Saline). After treatment with BCFAs or SCFAs or incubation in HBSS at pH 5.2, CACO2 and HeLa culture media were collected and centrifugated for 5 min at 13,000×g at room temperature. The pH of these culture media was then buffered to 7.5 to avoid pH-dependent interferences with luminol activity. Luminol (1 mM final concentration) and HRP (4 U/mL) were finally added to each culture media and luminescence was quantified immediately on a luminometer (Tecan).

In the next data set the test system is CCL20. In words: qRT-PCR of CCL20 mRNA in TNFα-stimulated CACO2 cells. The data set is classed as cell-based. Conditions: 1 hour pre-treatment, then 1 hour 100 ng/mL TNFα. The method, then:
as §2, with “For Transepithelial electrical resistance (TEER) measurements, cells were incubated for 24 h with TNFα.” left out
as §4

Data set [5] concerns CACO2 cells. Kind of data set: Transepithelial electrical resistance (TEER) of differentiated CACO2 monolayers with TNFα. Type of data set: cell-based. The settings on record: differentiated CACO2 in Transwell, 1 hour pre-treatment, then 24 hours 100 ng/mL TNFα. The method, then: CACO2 cells were seeded in Transwell inserts and cultivated for 21 days. Monolayer formation and differentiation was monitored by daily evaluation of transepithelial electrical resistance (TEER) measurement, performed with an EVOM epithelial voltohm meter equipped with “chopstick” electrodes. After three weeks, cell culture media were replaced by HBSS. Cells were then preincubated or not with isobutyric or isovaleric acids for 1 hour. 100 ng/mL TNFα was then added to both apical and basolateral compartments. TEER was evaluated after 24h of incubation.

Data set [6] concerns cullin-1 neddylation in HeLa cells. Kind of data set: Cullin-1 neddylation in HeLa cells. The data set is classed as cell-based. Conditions: 5h of incubation. The method, then: as §1, §3
A further data set relates to SAE1/SAE2 or UBC9. Kind of data set: Immunoblot of E1 and E2 SUMO enzyme levels in CACO2 cells. Type of data set: cell-based. The method, then: as §3
Data set [7] has as its system proteins conjugated to SUMO2/3 in T84 cells. Kind of data set: Immunoblot of SUMO2/3-conjugated proteins in T84 cells. The data set is classed as cell-based. The settings on record: 5 mM, 1h of incubation. The method, then:
as §1
Before treatments, cell culture medium was replaced by HBSS (Hanks' Balanced Salt Solution; Sigma). Cells were then treated as indicated in the text and directly lysed with Laemmli buffer. […] Viability of cells incubated with HBSS at various pH or with BCFAs was assessed using the CellTiter-Glo® luminescent cell viability assay (Promega), according to the manufacturer's protocol.
Cell lysates and protein extracts from intestinal tissues in Laemmli buffer were boiled for 5 min, sonicated and protein content was resolved using SDS-polyacrylamide gel electrophoresis. Proteins were then transferred on PVDF membranes (GE Healthcare) and detected after incubation with specific antibodies using ECL Clarity Western blotting Substrate (BioRad). […] Quantifications of proteins were performed on a ChemiDoc Imaging System (Bio-rad). […]

The test system of the next data set is deSUMOylases. Kind of data set: DeSUMOylase activity assay (SUMO-AMC cleavage) in lysates of treated CACO2 and T84 cells. Type of data set: cell-based. Conditions: 5 mM for 5 h, cell lysates. The method, then:
For in vitro cell lines, CACO2 and T84 cells grown in 12-well plates were scraped in 100 μL lysis buffer (Tris HCl pH 8.0 50 mM, EDTA 5 mM, NaCl 200 mM, Glycerol 10%, NP40 0.5%). For in vivo tissues, caecal segments were resuspended in lysis buffer (800 μL for 100 mg of tissues), mechanically lysed using bead beating and further diluted 25 times in lysis buffer. Negative controls were prepared by adding 10 mM N-ethymaleimide (NEM; Sigma-Aldrich) to cell lysates. Recombinant human SUMO1-AMC and SUMO2-AMC proteins (R&D Systems) were diluted in parallel to 500 nM in Assay buffer (Tris HCl pH 8.0 50 mM, Bovine Serum Albumin (BSA) 100 μg/mL, Dithiothreitol (DTT) 10 mM). For each measurement, 10 μL of cell or tissue lysates were mixed with 40 μL of SUMO-AMC containing Assay buffer and fluorescence (λEx=380 nm; λEm=460 nm) was recorded for 30 min at 37° C. on a Flexstation 3 microplate reader (Molecular Devices). DeSUMOylase activities were determined by calculating the initial rate of fluorescence emission in each lysate and by normalizing by the quantity of proteins in the corresponding sample, determined in parallel using BCA assays (Pierce™ BCA Protein Assay Kit).

The test system of data set [8] is cullin-1 neddylation in HeLa cells. The settings on record: HeLa cells (Kumar et al., 2007; Kumar et al., 2009); cited from earlier work.
For data set [9], the system named is IEC-6 intestinal epithelial cells. The settings on record: IEC-6 intestinal epithelial cells (Kumar et al., 2009); cited from earlier work.
The next data set relates to HeLa cells. Conditions: HeLa cells (Kumar et al., 2009); cited from earlier work.
Setting [10] is: CACO2 cells, 5h, pH~5.2, 5 mM final concentration.
Setting [11] is: CACO2 cells, pH~7.5, 5 mM final concentration.

Regarding `CC(=O)O` [acetic acid], in data set [1], the “level of SUMO2/3-conjugated proteins” value is “significant increase”.

On to `CC(C)C(=O)O` [isobutyric acid], for which, in [2], the “concentration present as isobutyrate” value was about 3500 µM, the “concentration present as isobutyric acid” value is about 1500 µM, the “pH of HBSS medium after addition” value is given as about 5.2 and the “proportion present as isobutyrate” value was about 72%. Besides, the “proportion present as isobutyric acid” value in data set [2] was about 28%. For the same compound, the “level of proteins conjugated to SUMO2/3” value in [1] (CACO2 cells, 5 mM, 1h or 5h of incubation) is given as “significant increase”. Further, the “intracellular pH (pHi)” value with T84 cells is recorded as “significant decrease”. In addition, in the data set on IκBα, the “TNFα-triggered degradation of IκBα” value is recorded as “block”. Besides, the “intracellular pH (pHi)” value with CACO2 cells [3] is recorded as “significant decrease”. Moreover, the “IL8 mRNA expression in response to TNFα” value with IL8 was “downregulate”. Further, in the data set with CACO2 cells [4], the ROS production result is listed as “induce ROS production” and the “level of ROS” value was “less important”. For the same compound, the “CCL20 mRNA expression in response to TNFα” value in the data set on CCL20 is listed as “downregulate”. For the same compound, the “TNFα-induced increase in epithelial permeability (TEER)” value with CACO2 cells [5] is given as “block”. Also, the cullin-1 neddylation entry in data set [6] was “triggers cullin-1 deneddylation”. For the same compound, the “level of SAE1/SAE2 or UBC9” value in the data set with SAE1/SAE2 or UBC9 was “do not alter”. In data set [7], the “hyperSUMOylation (SUMO2/3-conjugated proteins)” value is “hyperSUMOylation is similarly observed”. In the data set with deSUMOylases, the “initial rate of SUMO deconjugation, SUMO1-AMC substrate” value is given as “significantly decrease” and the “initial rate of SUMO deconjugation, SUMO2-AMC substrate” value was “significantly decrease”.

Regarding `CCCC(=O)O` [butyric acid], the “level of SUMO2/3-conjugated proteins” value in data set [1] (setting [10]) was “significant increase”. The “TNFα-triggered degradation of IκBα” value with IκBα is given as “block”. In [8], the cullin-1 neddylation entry is listed as “trigger the loss of cullin-1 neddylation”. The ROS production result in the data set with CACO2 cells [4] was “induce ROS production”; in data set [9] it was “induce ROS”; in the data set on HeLa cells, “induce ROS”. Further, the “level of ROS” value with CACO2 cells [4] is reported as “less important”.

Take `CC(=O)[O-].[Na+]` [sodium acetate]: the SUMOylation pattern entry in data set [1] is reported as “does not trigger any changes”.

Consider `CCC(=O)O` [propionic acid], for which the “level of SUMO2/3-conjugated proteins” value in data set [1] (setting [10]) is “significant increase”.

Turning to `CCC(=O)[O-].[Na+]` [sodium propionate], the SUMOylation pattern result in data set [1] (setting [11]) is “does not trigger any changes”.

For the compound `CCCC(=O)[O-].[Na+]` [sodium butyrate, reference compound], in data set [1] (setting [11]), the SUMOylation pattern result is recorded as “does not trigger any changes”. Also, the “TNFα-triggered degradation of IκBα” value in the data set on IκBα was “not observed”. Also, the “ROS detection after incubation with sodium salts (basic forms)” value in the data set on CACO2 cells [4] was “no ROS were detected”.

As for `c1ccc2c(c1)[I+]c1ccccc1-2` [DPI, Diphenyleneiodonium], the “effect of ROS scavenger preincubation on BCFAs-induced hyperSUMOylation” value in data set [1] (CACO2 cells) is “significantly block”.

Regarding `CC(=O)N[C@@H](CS)C(=O)O` [NAC, N-acetyl cysteine], the “effect of ROS scavenger preincubation on BCFAs-induced hyperSUMOylation” value in data set [1] (CACO2 cells) is reported as “significantly block”.
